Assay results: PMC11617253, “Gene expansion in the hawkmoth Manduca sexta drives evolution of food-associated odorant receptors” (iScience, 2024)

Tests used:
Assay in all cases: single sensillum recording, Drosophila empty neuron (ab3A)
Format in all cases: cell-based
[1] = target: T1, MsexOR33 (Manduca sexta, UniProt A0A0P1J430); settings: odor dilutions 10^-7 to 10^-2 v/v on filter paper, 500 ms pulse
T1 construct: gene OR-33; full-length CDS from antennal RNA, UAS transgene (pUASTattB) in D. melanogaster ab3A empty neuron (delta-halo; DmelOr22a-Gal4); partner is endogenous fly Orco; with Odorant receptor coreceptor (Drosophila melanogaster, endogenous to the ab3A neuron)

[2] = target: T2, MsexOR8 (Manduca sexta, UniProt A0A0P1IW06); settings: odor dilutions 10^-7 to 10^-2 v/v on filter paper, 500 ms pulse
T2 construct: gene OR-8; full-length CDS from antennal RNA, UAS transgene (pUASTattB) in D. melanogaster ab3A empty neuron (delta-halo; DmelOr22a-Gal4); partner is endogenous fly Orco; with Odorant receptor coreceptor (Drosophila melanogaster, endogenous to the ab3A neuron)
T2 sequence (A0A0P1IW06 1-407): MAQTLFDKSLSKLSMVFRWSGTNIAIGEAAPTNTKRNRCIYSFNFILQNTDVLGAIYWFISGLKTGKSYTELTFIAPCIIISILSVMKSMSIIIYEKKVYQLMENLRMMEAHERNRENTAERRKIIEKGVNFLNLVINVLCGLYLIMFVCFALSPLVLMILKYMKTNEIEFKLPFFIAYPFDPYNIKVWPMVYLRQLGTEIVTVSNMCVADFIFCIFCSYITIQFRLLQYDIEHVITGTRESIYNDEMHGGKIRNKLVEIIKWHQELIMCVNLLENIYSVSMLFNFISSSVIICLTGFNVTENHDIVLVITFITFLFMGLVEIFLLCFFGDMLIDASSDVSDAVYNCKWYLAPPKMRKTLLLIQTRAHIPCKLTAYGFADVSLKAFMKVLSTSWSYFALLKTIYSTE
T2 sequence (Q9VNB5 1-486 partner): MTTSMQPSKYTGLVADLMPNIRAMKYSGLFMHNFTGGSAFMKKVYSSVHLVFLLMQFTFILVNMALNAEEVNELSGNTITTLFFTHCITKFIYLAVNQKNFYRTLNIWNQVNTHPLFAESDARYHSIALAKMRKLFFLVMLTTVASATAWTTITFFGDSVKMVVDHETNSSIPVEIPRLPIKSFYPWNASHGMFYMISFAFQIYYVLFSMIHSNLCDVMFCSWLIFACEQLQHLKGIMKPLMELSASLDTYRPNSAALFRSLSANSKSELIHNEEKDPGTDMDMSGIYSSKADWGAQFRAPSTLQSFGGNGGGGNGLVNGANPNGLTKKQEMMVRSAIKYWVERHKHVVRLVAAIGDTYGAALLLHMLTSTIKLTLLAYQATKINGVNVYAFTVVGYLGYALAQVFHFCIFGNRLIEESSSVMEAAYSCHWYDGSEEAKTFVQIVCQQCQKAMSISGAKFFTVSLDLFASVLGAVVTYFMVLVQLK

[3] = target: T3, MsexOR36 (Manduca sexta, UniProt A0A0P1IVT0); settings: odor dilution 10^-2 v/v on filter paper, 500 ms pulse
T3 construct: gene OR-36; full-length CDS (407 aa) from antennal RNA, UAS transgene (pUASTattB) in D. melanogaster ab3A empty neuron (delta-halo; DmelOr22a-Gal4); partner is endogenous fly Orco; with Odorant receptor coreceptor (Drosophila melanogaster, endogenous to the ab3A neuron)
T3 sequence (A0A0P1IVT0 1-407): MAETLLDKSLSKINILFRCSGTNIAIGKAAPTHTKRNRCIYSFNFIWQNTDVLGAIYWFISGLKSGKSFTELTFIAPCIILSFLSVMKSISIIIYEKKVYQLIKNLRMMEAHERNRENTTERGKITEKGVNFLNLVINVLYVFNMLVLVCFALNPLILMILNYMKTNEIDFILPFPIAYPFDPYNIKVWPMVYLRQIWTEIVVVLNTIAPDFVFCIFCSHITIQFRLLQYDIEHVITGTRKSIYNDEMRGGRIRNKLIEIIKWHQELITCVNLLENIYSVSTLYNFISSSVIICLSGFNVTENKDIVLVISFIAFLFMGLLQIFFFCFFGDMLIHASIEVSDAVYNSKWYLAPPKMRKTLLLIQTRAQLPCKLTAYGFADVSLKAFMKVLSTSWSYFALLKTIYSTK
T3 sequence (Q9VNB5 1-486 partner): T2 sequence (Q9VNB5 1-486 partner)

T1 sequence (A0A0P1J430 entry or part of it, one chain of several): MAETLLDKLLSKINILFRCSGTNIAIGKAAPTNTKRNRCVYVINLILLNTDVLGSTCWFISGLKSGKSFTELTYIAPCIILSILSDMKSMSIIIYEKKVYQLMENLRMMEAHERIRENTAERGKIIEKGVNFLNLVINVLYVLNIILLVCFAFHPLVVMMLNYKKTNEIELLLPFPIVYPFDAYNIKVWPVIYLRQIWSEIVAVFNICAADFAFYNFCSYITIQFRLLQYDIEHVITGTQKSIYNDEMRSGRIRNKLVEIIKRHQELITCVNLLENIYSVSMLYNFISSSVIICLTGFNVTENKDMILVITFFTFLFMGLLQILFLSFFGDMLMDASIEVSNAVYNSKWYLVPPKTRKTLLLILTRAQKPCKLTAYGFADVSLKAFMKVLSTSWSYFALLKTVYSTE

## CCCCCCCCC=O [nonanal]
[1]
  single sensillum recording, Drosophila empty neuron (ab3A): each responding to only one odorant: MsexOR33 (nonanal) and MsexOR8 (propyl valerate)

## CCCCC(=O)OCCC [propyl valerate]
[2]
  single sensillum recording, Drosophila empty neuron (ab3A): each responding to only one odorant: MsexOR33 (nonanal) and MsexOR8 (propyl valerate)

## C=CC(C)=CCC=C(C)C [β-ocimene]
[3]
  single sensillum recording, Drosophila empty neuron (ab3A): β-ocimene, which was detected only by MsexOR36
